Read-outs that look alike come from different tables or passages of the source.
How the values were obtained:
[1] = test system: Glutamate, MK-801 Site (Ionotropic); assay: CNS side effect panel, [^3H]MK-801; format: binding; conditions: pentamidine 1.0E^-5 M
[2] = test system: Nicotinic, Neuronal (a-BnTx insensitive); assay: CNS side effect panel, [^3H]Epibatidine; format: binding; conditions: pentamidine 1.0E^-5 M
[3] = molecular target: Oxidase, MAO-B, Peripheral (Rattus norvegicus, UniProt P19643); assay: CNS side effect panel, [^14C]Phenylethylamine; format: biochemical
Dopamine, D1 (h) = molecular target: T1, Dopamine, D1 (h) (Homo sapiens, UniProt P21728); assay: CNS side effect panel, [^3H]-SCH23390; format: binding; conditions: pentamidine 1.0E^-5 M
T1 construct: purchased Perkin-Elmer Science Discovery Systems (NovaScreen), customised CNS screening panel

[4] = molecular target: Imidazoline, I2 [central]; assay: CNS side effect panel, [^3H]2-BFI; format: binding
[5] = test system: Trypanosoma brucei gambience; conditions: cited from earlier work
Rat NMDA receptor = conditions: Rat brain membrane 3H-dizocilpine binding; cited from earlier work

Chain of Oxidase, MAO-B, Peripheral (P19643 whole entry): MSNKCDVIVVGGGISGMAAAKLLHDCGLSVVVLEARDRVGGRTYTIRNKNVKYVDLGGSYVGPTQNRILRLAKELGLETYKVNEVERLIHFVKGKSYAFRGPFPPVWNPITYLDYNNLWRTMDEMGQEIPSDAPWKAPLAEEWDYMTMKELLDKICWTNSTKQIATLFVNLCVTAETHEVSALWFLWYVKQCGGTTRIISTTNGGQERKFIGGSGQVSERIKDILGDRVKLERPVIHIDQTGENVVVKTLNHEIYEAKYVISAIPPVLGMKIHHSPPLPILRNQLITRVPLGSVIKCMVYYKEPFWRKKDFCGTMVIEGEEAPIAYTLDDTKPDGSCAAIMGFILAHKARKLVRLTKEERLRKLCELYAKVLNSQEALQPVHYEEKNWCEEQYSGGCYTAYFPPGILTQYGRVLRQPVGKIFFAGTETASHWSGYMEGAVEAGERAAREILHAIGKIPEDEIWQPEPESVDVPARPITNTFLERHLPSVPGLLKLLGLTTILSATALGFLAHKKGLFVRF
T1 sequence (P21728 whole entry): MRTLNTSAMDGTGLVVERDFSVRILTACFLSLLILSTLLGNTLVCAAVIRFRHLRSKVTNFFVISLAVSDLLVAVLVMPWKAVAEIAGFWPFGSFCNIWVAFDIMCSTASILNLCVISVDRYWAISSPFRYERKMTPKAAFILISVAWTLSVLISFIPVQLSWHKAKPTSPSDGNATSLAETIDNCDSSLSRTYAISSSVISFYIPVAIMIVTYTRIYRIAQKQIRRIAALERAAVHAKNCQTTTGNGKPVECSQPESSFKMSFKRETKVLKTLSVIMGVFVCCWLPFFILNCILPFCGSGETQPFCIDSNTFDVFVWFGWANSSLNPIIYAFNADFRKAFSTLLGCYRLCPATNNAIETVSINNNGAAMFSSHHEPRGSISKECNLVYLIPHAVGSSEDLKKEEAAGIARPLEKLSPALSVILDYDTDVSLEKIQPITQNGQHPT

N=C(N)c1ccc(OCCCCCOc2ccc(C(=N)N)cc2)cc1 [Pentamidine, 1,5-bis-4ρ-amidinophenoxypentane]
Percent Inhibition [1]: 6.25%
Percent Inhibition [2]: 10.87%
Ki ([3]; Monoamine oxidase B, concentration-response): 181 nM
Percent Inhibition ([3]; pentamidine 1.0E^-5 M): 99.99%
Percent Inhibition (Dopamine, D1 (h)): 27.48%
Ki ([4]; Imidazoline 1_2, concentration-response): 1 nM
Percent Inhibition ([4]; pentamidine 1.0E^-5 M): 101.03%
Affinity, Trypanocidal ([5]; Time-dependent): 0.01 µM
trypanocidal activity in vitro [5]: around 10 nM
IC50 ([5]; comparator for relative selectivity, read-out: Trypanocidal Activity (IC50), printed in column Ki): 10 nM
IC50 ([5]; read-out: IC50): 14.7 ± 4.7 nM
Affinity (Rat NMDA receptor): 1.8 µM
